Experimental data published in ChEMBL document CHEMBL2086220, “Selective cytotoxicity and apoptosis induction in glioma cell lines by 5-oxygenated-6,7-methylenedioxycoumarins from Pterocaulon species” (Eur J Med Chem, 2012).
Activity calls are given as the source filed them. The calls are words filed in the database; no cut-off is given here.

Assays:
[1] = Cytotoxicity against human U138MG cells incubated for 48 hrs by MTT assay; format: functional, cell-based, U138-MG
[2] = test system: C6; assay: Cytotoxicity against rat C6 cells incubated for 48 hrs by MTT assay; format: functional, cell-based
[3] = test system: C6; assay: Induction of apoptotic cell death in rat C6 cells at 50 uM incubated for 24 hrs by Annexin V/PI staining based flow cytometry; format: functional
[4] = test system: C6; assay: Induction of apoptotic cell death in rat C6 cells at 25 uM incubated for 24 hrs by Annexin V/PI staining based flow cytometry; format: functional
[5] = test system: C6; assay: Induction of early apoptotic cell death in rat C6 cells at 100 uM incubated for 24 hrs by Annexin V/PI staining based flow cytometry; format: functional
[6] = test system: Hippocampus; assay: Toxicity in Wistar rat organotypic hippocampal cultures at 100 uM incubated for 48 hrs by propidium iodide incorporation assay; format: tissue-based
[7] = Homo sapiens, U138-MG, 48 h, read-out: IC50
[8] = Rattus norvegicus, C6, 48 h, read-out: IC50

## O=c1ccc2ccc(O)cc2o1 [UMBELLIFERONE]
[1]; u138-mg
  IC50: Not Active
[2]; c6
  IC50: Not Active

## Cn1nnc2c(C(N)=O)ncn2c1=O [TEMOZOLOMIDE]
[1]; [7]
  IC50: 26 µM
[2]; [8]
  IC50: 34 µM

## O=c1ccc2cc(O[C@@H]3O[C@H](CO)[C@@H](O)[C@H](O)[C@H]3O)c(O)cc2o1 [ESCULIN]
[1]; u138-mg
  IC50: Not Active
[2]; c6
  IC50: Not Active

## CC(C)(O)C(O)COc1c2c(cc3oc(=O)ccc13)OCO2 (stereo not given)
[1]; [7]
  IC50: 75.6 µM
[2]; [8]
  IC50: 76.4 µM

## O=c1ccc2cc(O)c(O)cc2o1 [ESCULETIN]
[1]; u138-mg
  IC50: Not Active
[2]; c6
  IC50: Not Active

## CC(C)=CCOc1c2c(cc3oc(=O)ccc13)OCO2
[1]; [7]
  IC50: 65.4 µM
[2]; [8]
  IC50: 77.5 µM

## O=c1ccc2ccccc2o1 [COUMARIN]
[1]; u138-mg
  IC50: Not Active
[2]; c6
  IC50: Not Active

## COc1c2c(cc3oc(=O)ccc13)OCO2
[3]
  Activity: inactive
[4]
  Activity: inactive
[1]; [7]
  IC50: 31.6 µM
[5]
  Activity: Active
[6]
  Activity: Non-toxic
[2]; [8]
  IC50: 34.6 µM
